Source: patent US5811442A, “Pharmaceutical compositions for the treatment of conditions associated with decreased blood flow” (priority 1997, dated 1998)
Like-named read-outs stand apart in the source and are kept apart here.

Columns and labels:
[1] = test system: β2-containing nicotinic acetylcholine receptor subtypes; assay: Determination of Dopamine Release (synaptosomes); assay type: cell-based; settings: for EC50: read-out: Dopamine Release EC50
From the text: Determination of Dopamine Release
Reported EC50 is expressed in nM and Emax represents the amount released relative to nicotine.

muscle receptors = target: T1, muscle receptors (Homo sapiens, UniProt P02708+P07510+Q07001); assay: cell-based; assay type: cell-based; settings: for Muscle Effect (Emax): percentage of the maximal activation induced by (S)-(-)-nicotine; for Emax: read-out: Muscle Effect (Emax)
T1 construct: endogenous in cells
T1 sequence (P02708 21-457): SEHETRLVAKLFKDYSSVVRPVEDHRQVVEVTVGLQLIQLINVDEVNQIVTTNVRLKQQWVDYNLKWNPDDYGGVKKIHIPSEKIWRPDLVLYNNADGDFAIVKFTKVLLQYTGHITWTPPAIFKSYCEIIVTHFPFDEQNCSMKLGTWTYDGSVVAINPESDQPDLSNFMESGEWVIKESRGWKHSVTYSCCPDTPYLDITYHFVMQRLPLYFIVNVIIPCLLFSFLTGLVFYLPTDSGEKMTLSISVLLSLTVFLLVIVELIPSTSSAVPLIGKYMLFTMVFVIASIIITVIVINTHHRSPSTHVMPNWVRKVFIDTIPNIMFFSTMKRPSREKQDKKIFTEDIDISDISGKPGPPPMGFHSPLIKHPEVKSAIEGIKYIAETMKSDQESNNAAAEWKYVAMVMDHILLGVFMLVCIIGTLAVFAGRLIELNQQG
T1 sequence (P07510 23-517): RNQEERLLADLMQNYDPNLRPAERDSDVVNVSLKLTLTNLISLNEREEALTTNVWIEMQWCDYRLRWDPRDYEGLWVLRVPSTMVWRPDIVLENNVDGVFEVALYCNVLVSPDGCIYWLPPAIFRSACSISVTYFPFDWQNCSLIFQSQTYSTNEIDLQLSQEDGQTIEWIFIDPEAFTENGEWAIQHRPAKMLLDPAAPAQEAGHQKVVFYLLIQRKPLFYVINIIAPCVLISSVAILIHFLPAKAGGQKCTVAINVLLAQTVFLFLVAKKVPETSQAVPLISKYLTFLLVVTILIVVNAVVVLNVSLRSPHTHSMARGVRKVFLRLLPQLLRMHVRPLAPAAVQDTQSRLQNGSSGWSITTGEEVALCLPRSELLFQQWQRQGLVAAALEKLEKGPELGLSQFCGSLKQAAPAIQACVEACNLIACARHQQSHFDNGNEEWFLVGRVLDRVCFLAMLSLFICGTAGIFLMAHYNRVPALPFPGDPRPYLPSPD
T1 sequence (Q07001 22-517): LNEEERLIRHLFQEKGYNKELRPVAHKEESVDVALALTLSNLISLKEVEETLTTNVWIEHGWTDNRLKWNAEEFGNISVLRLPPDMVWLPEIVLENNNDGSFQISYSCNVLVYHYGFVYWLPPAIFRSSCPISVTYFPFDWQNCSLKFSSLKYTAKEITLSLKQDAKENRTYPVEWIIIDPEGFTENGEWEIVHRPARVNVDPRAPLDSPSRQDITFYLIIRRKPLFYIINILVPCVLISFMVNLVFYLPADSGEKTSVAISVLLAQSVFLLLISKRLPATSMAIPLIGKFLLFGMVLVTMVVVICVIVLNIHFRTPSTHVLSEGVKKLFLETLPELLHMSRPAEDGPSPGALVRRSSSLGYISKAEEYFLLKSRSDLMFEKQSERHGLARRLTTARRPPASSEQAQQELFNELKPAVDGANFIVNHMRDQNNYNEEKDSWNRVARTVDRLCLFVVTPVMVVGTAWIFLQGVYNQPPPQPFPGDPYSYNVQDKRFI
From the text: Determination of Interaction with Muscle
The muscle tissues employed are representative of those which are believed absent of receptor subtypes containing β2-subunits.

ganglionic receptors = assay: Determination of Interaction with Ganglia (maximal activation of ganglionic receptors); assay type: cell-based; settings: percentage of the maximal activation induced by (S)-(-)-nicotine
From the text: Typical ganglionic receptors include α3β4 receptor subtypes, (i.e., non-β2 containing receptor subtypes).
Determination of Interaction with Ganglia
The ganglionic tissues employed are representative of those which are believed absent of receptor subtypes containing β2-subunits.

[2] = test system: nicotinic acetylcholine receptor subtypes including β2-subunits; settings: reported; cited from earlier work
α4β2 receptor subtypes = target: T2, α4β2 receptor subtypes (Rattus norvegicus, UniProt P09483+P12390); assay: Determination of Binding to Relevant Receptor Sites; settings: calculated from IC50 values using the method of Cheng et al.
T2 construct: from tissue
T2 sequence (P09483 31-630): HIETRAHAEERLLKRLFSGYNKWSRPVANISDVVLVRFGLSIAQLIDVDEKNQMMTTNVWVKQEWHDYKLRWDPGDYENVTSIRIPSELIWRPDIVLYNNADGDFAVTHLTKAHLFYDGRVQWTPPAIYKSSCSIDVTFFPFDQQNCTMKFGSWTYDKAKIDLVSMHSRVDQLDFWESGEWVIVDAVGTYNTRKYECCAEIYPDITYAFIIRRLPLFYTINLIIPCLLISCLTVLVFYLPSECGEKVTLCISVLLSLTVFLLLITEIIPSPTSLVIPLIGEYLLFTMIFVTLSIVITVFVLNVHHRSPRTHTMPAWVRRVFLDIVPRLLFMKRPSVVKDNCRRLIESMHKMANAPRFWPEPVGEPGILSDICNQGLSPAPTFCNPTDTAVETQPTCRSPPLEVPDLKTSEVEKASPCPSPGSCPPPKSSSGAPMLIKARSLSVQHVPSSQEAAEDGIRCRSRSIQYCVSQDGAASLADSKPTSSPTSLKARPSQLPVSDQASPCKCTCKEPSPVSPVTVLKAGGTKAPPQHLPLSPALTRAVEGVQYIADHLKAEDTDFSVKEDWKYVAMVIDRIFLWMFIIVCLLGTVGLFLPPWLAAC
T2 sequence (P12390 25-500): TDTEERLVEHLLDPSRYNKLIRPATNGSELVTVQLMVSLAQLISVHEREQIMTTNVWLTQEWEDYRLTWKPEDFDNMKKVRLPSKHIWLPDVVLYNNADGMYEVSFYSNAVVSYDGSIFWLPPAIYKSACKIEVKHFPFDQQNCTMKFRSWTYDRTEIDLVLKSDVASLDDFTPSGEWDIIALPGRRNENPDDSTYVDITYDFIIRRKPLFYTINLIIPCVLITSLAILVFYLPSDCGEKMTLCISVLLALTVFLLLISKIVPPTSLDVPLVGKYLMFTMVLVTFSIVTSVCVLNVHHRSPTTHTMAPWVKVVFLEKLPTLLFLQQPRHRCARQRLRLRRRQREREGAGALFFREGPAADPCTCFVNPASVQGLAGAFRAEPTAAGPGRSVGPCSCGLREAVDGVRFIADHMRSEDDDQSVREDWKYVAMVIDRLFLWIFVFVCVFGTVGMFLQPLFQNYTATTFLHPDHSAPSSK
From the text: Receptor binding constants provide a measure of the ability of the compound to bind to relevant receptor sites of certain cells of the patient.
Determination of Binding to Relevant Receptor Sites

[3] = read-out: Dopamine Release Emax, percentage of release obtained with (S)-(-)-nicotine concentration resulting in maximal effects
[4] = read-out: Dopamine Release Emax

Compound | EC50 [1] | Emax [1, 3] | Muscle Effect (Emax) (muscle receptors) | Ganglion Effect (Emax) (ganglionic receptors) | Emax [1, 4] | affinity to bind to nicotinic acetylcholine receptor subtypes (in words) [2] | Ki (α4β2 receptor subtypes) | EC50 ([1]; dopamine release) | Dopamine Release Emax ([1]; percentage of release obtained with (S)-(-)-nicotine concentration resulting in maximal effects) | Emax (muscle receptors)
CNCC/C=C/c1cncc(Oc2ccccc2)c1 [Sample No. 15, (E)-N-Methyl-4-[3-(5-phenoxypyridin)yl]-3-buten-1-amine] | 114 nM | 14% | 5 % nicotine | < 15 % nicotine | – | – | – | – | – | –
CNCC/C=C/c1cncc(OC(C)C)c1 [Sample No. 16, (E)-N-Methyl-4-[3-(5-isopropoxypyridin)yl]-3-buten-1-amine] | 51 nM | 57% | 8 % nicotine | < 15 % nicotine | – | – | – | – | – | –
CN1CCC[C@H]1c1cccnc1 [Sample No. C-1, (S)-(-)-nicotine, reference compound] | – | – | – | 100 % nicotine | 100% | demonstrated affinity to bind to numerous nicotinic acetylcholine receptor subtypes including β2-subunits | – | – | – | –
CCOc1cncc(/C=C/CCNC)c1 [Sample No. 9, (E)-N-methyl-4-[3-(5-ethoxypyridin)yl]-3-butene-1-amine] | – | – | 0 % nicotine | 0 % nicotine | – | – | 9 nM | 287 nM | 124% | –
CNCC/C=C/c1ccc(C)nc1 [Sample No. 1, (E)-N-methyl-4[3-(6-methylpyridin)yl]-3-buten-1-amine monofumarate] | 10000 nM | – | – | 4 % nicotine | 115% | – | – | – | – | –
CNCC/C=C/c1cncc(OC)c1 [Sample No. 8, (E)-N-methyl-4-[3-(5-methoxypyridin)yl]-3-butene-1-amine] | 191 nM | 103% | 0 % nicotine | 0 % nicotine | – | – | 10 nM | – | – | –
CNCC/C=C/c1cncc(Br)c1 [Sample No. 7, (E-N-methyl-4-[3-5-bromopyridin)yl]-3-buten-1-amine monofumarate] | 2400 nM | 107% | – | 11 % nicotine | – | – | 79 nM | – | – | 8%
NCC/C=C/c1cncc(Br)c1 [Sample No. 13, (E)-4-[3-(5-Bromopyridin)yl]-3-buten-1-amine Hemifumarate] | 49 nM | 29% | – | 0 % nicotine | – | – | 707 nM | – | – | 5%
CNCC/C=C/c1cncc(N)c1 [Sample No. 5, (E)-N-methyl-4-[3-(5-aminopyridin)yl]-3-buten-1-amine] | 2000 nM | 85% | 4 % nicotine | 4 % nicotine | – | – | – | – | – | –
CNCC/C=C/c1cncc(-c2ccccc2)c1 [Sample No. 3, (E)-N-Methyl-4-[3-(5-phenylpyridin)yl]-3-buten-1-amine] | > 100000 nM | > 160% | 8 % nicotine | 0 % nicotine | – | – | – | – | – | –
CCOc1cncc(/C=C/CCNC)c1 [Sample No. 19, (E)-N-Methyl-4-[3-(5-ethoxypyridin)yl]-3-buten-1-amine sesquifumarate] | – | – | 3 % nicotine | < 15 % nicotine | – | – | – | 276 nM | – | –
CNCC/C=C/c1cncnc1 [Sample No. 11, (E)-N-methyl-4-(5-pyrimidinyl)-3-buten-1-amine] | – | – | – | 0 % nicotine | – | – | – | – | – | 12%
NCC/C=C/c1cccnc1.O=C(O)/C=C/C(=O)O.O=C(O)/C=C/C(=O)O [Sample No. 18, (E)-4-(3-pyridinyl)-3-buten-1-amine difumarate] | 5020 nM | 81% | 15 % nicotine | 23 % nicotine | – | – | – | – | – | –
CNCC/C=C/c1cncc(COC)c1 [Sample No. 17, (E)-N-Methyl-4-[3-(5-methoxymethylpyridin)yl]-3-buten-1-amine] | 16000 nM | 46% | 13 % nicotine | 0 % nicotine | – | – | – | – | – | –
CNCC/C=C/c1cccnc1 [Sample No. 14, (E)-metanicotine monofumarate] | 1020 nM | – | – | – | 90% | – | – | – | – | –
CNCC/C=C/c1cncc(OCc2ccccc2)c1 [Sample No. 6, (E)-N-Methyl-4-[3-(5-benzyloxypyridin)yl]-3-buten-1-amine] | 4000 nM | 33% | 12 % nicotine | 0 % nicotine | – | – | – | – | – | –
COc1cncc(/C=C/CCN)c1 [Sample No. 4, (E)-4-[3-(5-methoxypyridin)yl]-3-buten-1-amine monofumarate] | 3800 nM | – | – | 0 % nicotine | – | – | – | – | – | –
CNCC/C=C\c1cccnc1 [Sample No. 12, (Z)-metanicotine monofumarate] | 8310 nM | – | – | – | 96% | – | – | – | – | –
CNC(C)C/C=C/c1cccnc1 (stereo not shown) [Sample No. 10, (E)-N-methyl-5-(3-pyridinyl)-4-penten-2-amine] | 21400 nM | 182% | 4 % nicotine | 6 % nicotine | – | – | 82 nM | – | – | –
